Assay results from patent publication US6514510B1, “Insecticidal and miticidal compositions” (BASF Aktiengesellschaft, priority 1996, dated 2003).

Legend:
[1] = system: Kanzawa spider mite (Tetranychus kanzawai kishida) which are resistant to Compound A; test: Miticidal effect against female imagines of Kanzawa spider mite resistant to Compound A (leaf disk spray test); details: for LC50 (ppm): single active ingredient, female imago, Compound A-resistant colony, mortality two days after spray treatment, probit method
Method: Round leaf disks (2 cm diameter) are cut out of a first leaf of kidney bean by using a leaf punch and 4 sheets of the leaf disks are placed on wet sanitary cotton on a PVC cup of 8 cm diameter.
Each PVC cup is sprayed with 3.5 ml of the test solution by using a rotary spray tower (manufactured by Mizuho Scientific Co., Ltd.) and stored in a constant temperature chamber held at 25±° C. (32 individuals are tested per concentration, 4-5 concentrations are evaluated per formulation and 2 performances are repeated). Two days after treatment, the number of living and dead female imagines of Kanzawa spider mite (Tetranychus kanzawai kishida) on the leaf disk is investigated and the mortality (%) is calculated according to the formula shown hereinbelow. From these mortality data, the LC50 values are obtained by conventional probit method. [formula]
For the above-mentioned values larger than 100, the larger value indicates a stronger synergistic action. For the value equal to 100, an additive action is indicated. For the values less than 100, the lesser value indicates a larger antagonistic action. A more detailed description of the calculation of the co-toxicity coefficient by the above-mentioned Sun and Johnson's method is the following. […] [formula]

[2] = system: susceptible strain of spider mite; test: Effect of Compound A against a susceptible strain of spider mite; type: in vivo; details: not mentioned in the table

| Compound | LC50 (ppm) [1] [ppm] | LC50 value [2] | resistance against Compound A ([1]; resistant strain versus susceptible strain, LC50 values) [fold] |
| --- | --- | --- | --- |
| Cc1c(COC(=O)[C@@H]2[C@H](/C=C(\Cl)C(F)(F)F)C2(C)C)cccc1-c1ccccc1 (racemic) [Bifenthrin, 2-methylbiphenyl-3-ylmethyl (Z)-(1RS,3RS)-3-(2-chloro-3,3,3-trifluoroprop-1-enyl)-2,2-dimethylcyclopropanecar-boxylate] | 20 | – | – |
| CC(C)[C@H](Nc1ccc(C(F)(F)F)cc1Cl)C(=O)OC(C#N)c1cccc(Oc2ccccc2)c1 (stereo partly drawn) [Fluvalinate, (RS)-α-cyano-3-phenoxy-benzyl N-(2-chloro-α,α,α,α-trifluoro-p-tolyl)-D-valinate] | 180 | – | – |
| CC1(C)C(C=C(Cl)Cl)C1C(=O)OCc1cccc(Oc2ccccc2)c1 (stereo not drawn) [Permethrin, 3-phenoxybenzyl (1RS,3RS; 1RS,3RS)-3-(2,2-dichlorovinyl)-2,2-dimethylcyclopropanecarboxylate] | 440 | – | – |
| CCOc1ccc(C(C)(C)COCc2cccc(Oc3ccccc3)c2)cc1 [Ethofenprox, 2-(4-ethoxyphenyl)-2-methylpropyl 3-phenoxybenzyl ether] | 620 | – | – |
| CC1(C)[C@H](C(=O)O[C@@H](C#N)c2cccc(Oc3ccccc3)c2)[C@@H]1/C=C(\Cl)C(F)(F)F (racemic) [Cyhalothrin, (RS)-α-cyano-3-phenoxybenzyl (Z)-(1RS,3RS)-3-(2-chloro-3,3,3-trifluoropropenyl)-2,2-dimethylcyclopropanecarboxylate] | 590 | – | – |
| CC1(C)C(C(=O)OC(C#N)c2cccc(Oc3ccccc3)c2)C1(C)C (racemic) [Fenpropathrin, (RS)-α-cyano-3-phenoxybenzyl 2,2,3,3-tetramethyl-cyclopropanecarboxylate] | 290 | – | – |
| CCOCn1c(-c2ccc(Cl)cc2)c(C#N)c(Br)c1C(F)(F)F [Compound A, 4-bromo-2-(4-chlorophenyl)-1-(ethoxymethyl)-5-(trifluoromethyl)-pyrrole-3-carbonitrile] | 1500 | about 5 ppm | ~300 |
| CC1(C)C(C=C(Cl)Cl)C1C(=O)OC(C#N)c1cccc(Oc2ccccc2)c1 (racemic) [Cypermethrin, (RS)-α-cyano-3-phenoxybenzyl (1RS,3RS,1RS,3RS)-3-(2,2-dichlorovinyl)-2,2-dimethylcyclopro-panecarboxylate] | 2500 | – | – |
| CC1(C)C(C=C(Cl)Cl)C1C(=O)OC(C#N)c1ccc(F)c(Oc2ccccc2)c1 (racemic) [Cyfluthrin, (RS)-α-cyano4-fluoro-3-phenoxybenzyl (1RS,3RS; 1RS,3SR)-3-(2,2-dichlorovinyl)-2,2-dimethylcyclopropanecarboxylate] | 1500 | – | – |
